In PubChem BioAssay AID1963974 (Molecular Pharmacology Branch, DTP, NCI, 2024):
pIC50: −log10 of the molar value.

Test system: 648629-189-R-J1-PDC spheroids with HUVEC/MSC, viability
Test: Anticancer human tumor 648629-189-R-J1-PDC patient-derived bladder carcinoma cell line growth inhibition [PI3K]
Details: for pIC50: curve of first compound; for viability, T/C: stronger effect = lower value
Procedure, shortened: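 Three cell types, namely tumor cells, endothelial cells and mesenchymal stem cells, formed each spheroid. Combinations with four PI3K inhibitors were screened at clinically achievable concentrations decreasing by half-log, and spheroid viability was recorded.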
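Note: spheroids exposed to agents for seven days before reading.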
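Throughout, for viability, T/C: percent of vehicle control luminescence where 100% = DMSO treated spheroids.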

With `Cn1cnc2c(F)c(Nc3ccc(Br)cc3Cl)c(C(=O)NOCCO)cc21` + CC(Nc1ccc2c(c1)OCCn1cc(N3C(=O)OCC3C(F)F)nc1-2)C(N)=O as the compound, how does the pIC50 (second compound 0.00316 µM) read?
Its pIC50 is less than 5.52.

And the pIC50 (second compound 0.01 µM)?
Its pIC50 is less than 5.52.

What about the pIC50 (second compound 0.0316 µM) of the same compound?
The pIC50 was less than 5.52.

What about the pIC50 (second compound 0.1 µM) of the same compound?
Its pIC50 is less than 5.52.

And the pIC50 (second compound 0.316 µM)?
The pIC50 was less than 5.52.

What about the pIC50 (second compound 1 µM) of the same compound?
The pIC50 was less than 5.52.

And the viability, T/C (second compound 0.00316 µM, first compound 0.00949 µM)?
The viability, T/C was 95.5%.

What about the viability, T/C (second compound 0.00316 µM, first compound 0.03 µM) of the same compound?
The viability, T/C was 103%.

And the viability, T/C (second compound 0.00316 µM, first compound 0.0949 µM)?
The viability, T/C was 99.2%.

And the viability, T/C (second compound 0.00316 µM, first compound 0.3 µM)?
Its viability, T/C is 91.8%.

And the viability, T/C (second compound 0.00316 µM, first compound 0.949 µM)?
The viability, T/C was 94.4%.

What about the viability, T/C (second compound 0.00316 µM, first compound 3 µM) of the same compound?
The viability, T/C was 81.6%.

And the viability, T/C (second compound 0.01 µM, first compound 0.00949 µM)?
The viability, T/C was 93.4%.

What about the viability, T/C (second compound 0.01 µM, first compound 0.03 µM) of the same compound?
The viability, T/C was 91.2%.

And the viability, T/C (second compound 0.01 µM, first compound 0.0949 µM)?
The viability, T/C was 92.9%.

And the viability, T/C (second compound 0.01 µM, first compound 0.3 µM)?
The viability, T/C was 91.8%.

What about the viability, T/C (second compound 0.01 µM, first compound 0.949 µM) of the same compound?
Its viability, T/C is 103%.

What about the viability, T/C (second compound 0.01 µM, first compound 3 µM) of the same compound?
The viability, T/C was 81.1%.

And the viability, T/C (second compound 0.0316 µM, first compound 0.00949 µM)?
Its viability, T/C is 98.5%.

And the viability, T/C (second compound 0.0316 µM, first compound 0.03 µM)?
The viability, T/C was 96.2%.

What about the viability, T/C (second compound 0.0316 µM, first compound 0.0949 µM) of the same compound?
The viability, T/C was 87.5%.

And the viability, T/C (second compound 0.0316 µM, first compound 0.3 µM)?
Its viability, T/C is 89.3%.

And the viability, T/C (second compound 0.0316 µM, first compound 0.949 µM)?
Its viability, T/C is 95.2%.

And the viability, T/C (second compound 0.0316 µM, first compound 3 µM)?
The viability, T/C was 79.2%.

And the viability, T/C (second compound 0.1 µM, first compound 0.00949 µM)?
Its viability, T/C is 90.7%.

What about the viability, T/C (second compound 0.1 µM, first compound 0.03 µM) of the same compound?
The viability, T/C was 91.7%.

What about the viability, T/C (second compound 0.1 µM, first compound 0.0949 µM) of the same compound?
The viability, T/C was 82.6%.

And the viability, T/C (second compound 0.1 µM, first compound 0.3 µM)?
Its viability, T/C is 92.2%.

And the viability, T/C (second compound 0.1 µM, first compound 0.949 µM)?
The viability, T/C was 93.9%.

And the viability, T/C (second compound 0.1 µM, first compound 3 µM)?
The viability, T/C was 75.8%.

What about the viability, T/C (second compound 0.316 µM, first compound 0.00949 µM) of the same compound?
The viability, T/C was 81.1%.

And the viability, T/C (second compound 0.316 µM, first compound 0.03 µM)?
Its viability, T/C is 79.2%.

What about the viability, T/C (second compound 0.316 µM, first compound 0.0949 µM) of the same compound?
The viability, T/C was 70.3%.

What about the viability, T/C (second compound 0.316 µM, first compound 0.3 µM) of the same compound?
Its viability, T/C is 78.5%.

And the viability, T/C (second compound 0.316 µM, first compound 0.949 µM)?
The viability, T/C was 74.3%.

What about the viability, T/C (second compound 0.316 µM, first compound 3 µM) of the same compound?
Its viability, T/C is 69.1%.

What about the viability, T/C (second compound 1 µM, first compound 0.00949 µM) of the same compound?
The viability, T/C was 66.1%.

What about the viability, T/C (second compound 1 µM, first compound 0.03 µM) of the same compound?
Its viability, T/C is 70.4%.

And the viability, T/C (second compound 1 µM, first compound 0.0949 µM)?
The viability, T/C was 66.4%.

What about the viability, T/C (second compound 1 µM, first compound 0.3 µM) of the same compound?
The viability, T/C was 96.4%.

What about the viability, T/C (second compound 1 µM, first compound 0.949 µM) of the same compound?
Its viability, T/C is 66%.

And the viability, T/C (second compound 1 µM, first compound 3 µM)?
Its viability, T/C is 51%.

With `CC(C)n1nc(-c2ccc3oc(N)nc3c2)c2c(N)ncnc21` + COc1c(OCCCN2CCOCC2)ccc2c3n(c(=NC(=O)c4cnc(N)nc4)nc12)CCN3 as the compound, how does the pIC50 (second compound 0.00316 µM) read?
The pIC50 was 7.24.

What about the pIC50 (second compound 0.01 µM) of the same compound?
The pIC50 was 7.33.

What about the pIC50 (second compound 0.0316 µM) of the same compound?
The pIC50 was 7.45.

And the pIC50 (second compound 0.1 µM)?
The pIC50 was 7.84.

And the pIC50 (second compound 0.316 µM)?
The pIC50 was greater than 9.50.

And the pIC50 (second compound 1 µM)?
The pIC50 was greater than 9.50.

What about the viability, T/C (second compound 0.00316 µM, first compound 0.000316 µM) of the same compound?
Its viability, T/C is 90.5%.

What about the viability, T/C (second compound 0.00316 µM, first compound 0.001 µM) of the same compound?
Its viability, T/C is 79.5%.

What about the viability, T/C (second compound 0.00316 µM, first compound 0.00316 µM) of the same compound?
Its viability, T/C is 95.2%.

What about the viability, T/C (second compound 0.00316 µM, first compound 0.01 µM) of the same compound?
The viability, T/C was 77.8%.

And the viability, T/C (second compound 0.00316 µM, first compound 0.0316 µM)?
The viability, T/C was 72.7%.

And the viability, T/C (second compound 0.00316 µM, first compound 0.1 µM)?
Its viability, T/C is 30.3%.

And the viability, T/C (second compound 0.01 µM, first compound 0.000316 µM)?
The viability, T/C was 86.2%.

And the viability, T/C (second compound 0.01 µM, first compound 0.001 µM)?
The viability, T/C was 89.9%.

And the viability, T/C (second compound 0.01 µM, first compound 0.00316 µM)?
Its viability, T/C is 90.4%.

What about the viability, T/C (second compound 0.01 µM, first compound 0.01 µM) of the same compound?
Its viability, T/C is 79.5%.

What about the viability, T/C (second compound 0.01 µM, first compound 0.0316 µM) of the same compound?
Its viability, T/C is 62.4%.

What about the viability, T/C (second compound 0.01 µM, first compound 0.1 µM) of the same compound?
Its viability, T/C is 25.9%.

What about the viability, T/C (second compound 0.0316 µM, first compound 0.000316 µM) of the same compound?
The viability, T/C was 79.1%.

What about the viability, T/C (second compound 0.0316 µM, first compound 0.001 µM) of the same compound?
Its viability, T/C is 86.4%.

And the viability, T/C (second compound 0.0316 µM, first compound 0.00316 µM)?
The viability, T/C was 86%.

What about the viability, T/C (second compound 0.0316 µM, first compound 0.01 µM) of the same compound?
Its viability, T/C is 68.3%.

What about the viability, T/C (second compound 0.0316 µM, first compound 0.0316 µM) of the same compound?
The viability, T/C was 54.5%.

What about the viability, T/C (second compound 0.0316 µM, first compound 0.1 µM) of the same compound?
The viability, T/C was 21.7%.

What about the viability, T/C (second compound 0.1 µM, first compound 0.000316 µM) of the same compound?
Its viability, T/C is 63.1%.

And the viability, T/C (second compound 0.1 µM, first compound 0.001 µM)?
The viability, T/C was 56.8%.

What about the viability, T/C (second compound 0.1 µM, first compound 0.00316 µM) of the same compound?
Its viability, T/C is 61.1%.

And the viability, T/C (second compound 0.1 µM, first compound 0.01 µM)?
Its viability, T/C is 58.3%.

And the viability, T/C (second compound 0.1 µM, first compound 0.0316 µM)?
Its viability, T/C is 32.8%.

What about the viability, T/C (second compound 0.1 µM, first compound 0.1 µM) of the same compound?
Its viability, T/C is 13.3%.

What about the viability, T/C (second compound 0.316 µM, first compound 0.000316 µM) of the same compound?
Its viability, T/C is 18.5%.

And the viability, T/C (second compound 0.316 µM, first compound 0.001 µM)?
Its viability, T/C is 21.5%.

And the viability, T/C (second compound 0.316 µM, first compound 0.00316 µM)?
Its viability, T/C is 18.2%.

What about the viability, T/C (second compound 0.316 µM, first compound 0.01 µM) of the same compound?
Its viability, T/C is 15.8%.

What about the viability, T/C (second compound 0.316 µM, first compound 0.0316 µM) of the same compound?
The viability, T/C was 12.2%.

And the viability, T/C (second compound 0.316 µM, first compound 0.1 µM)?
Its viability, T/C is 5.55%.

And the viability, T/C (second compound 1 µM, first compound 0.000316 µM)?
Its viability, T/C is 3.09%.

And the viability, T/C (second compound 1 µM, first compound 0.001 µM)?
Its viability, T/C is 3%.

What about the viability, T/C (second compound 1 µM, first compound 0.00316 µM) of the same compound?
The viability, T/C was 2.48%.

And the viability, T/C (second compound 1 µM, first compound 0.01 µM)?
The viability, T/C was 3.58%.

What about the viability, T/C (second compound 1 µM, first compound 0.0316 µM) of the same compound?
The viability, T/C was 2.39%.

And the viability, T/C (second compound 1 µM, first compound 0.1 µM)?
Its viability, T/C is 0.95%.
